Columns and labels:
COX-2 [1] = biological target: T1, COX-2 (UniProt P35354); experiment: Fast assay for COX-2 activity (PGE2 ELISA); assay type: biochemical, human or murine; settings: fast assay: 10 min pre-incubation at 25° C., reaction stopped after two minutes, pH 7.5
T1 sequence (P35354 1-604): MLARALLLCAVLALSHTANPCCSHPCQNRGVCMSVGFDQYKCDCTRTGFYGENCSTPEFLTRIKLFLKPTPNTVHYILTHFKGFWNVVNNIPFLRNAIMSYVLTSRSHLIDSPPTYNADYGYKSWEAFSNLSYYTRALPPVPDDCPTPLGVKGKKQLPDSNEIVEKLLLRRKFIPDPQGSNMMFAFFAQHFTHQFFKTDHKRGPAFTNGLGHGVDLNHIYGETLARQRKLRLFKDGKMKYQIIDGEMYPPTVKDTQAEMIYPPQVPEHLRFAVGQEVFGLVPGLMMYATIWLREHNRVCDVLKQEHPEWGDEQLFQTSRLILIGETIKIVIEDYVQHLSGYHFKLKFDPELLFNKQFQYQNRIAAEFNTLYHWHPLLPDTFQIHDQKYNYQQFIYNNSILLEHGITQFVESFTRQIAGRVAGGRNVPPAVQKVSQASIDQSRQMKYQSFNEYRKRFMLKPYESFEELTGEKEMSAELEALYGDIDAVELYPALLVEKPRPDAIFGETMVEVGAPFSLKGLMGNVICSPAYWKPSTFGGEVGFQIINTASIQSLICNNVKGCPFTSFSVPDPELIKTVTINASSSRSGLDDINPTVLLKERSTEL

COX-2 [2] = biological target: T1, COX-2; experiment: Assay for COX-2 activity (PGE2 ELISA); settings: read-out: COX-2 IC50; 10–20 minutes pre-incubation, reaction stopped after ten minutes, pH 8.0
Method: (§1) Recombinant baculoviruses were isolated by transfecting 4 μg of baculovirus transfer vector DNA into SF9 insect cells (2×10^8) along with 200 ng of linearized baculovirus plasmid DNA by the calcium phosphate method. […] Recombinant viruses were purified by three rounds of plaque purification and high titer (10^7–10^8 pfu/mL) stocks of virus were prepared. For large scale production, SF9 insect cells were infected in 10 liter fermentors (0.5×10^6/mL) with the recombinant baculovirus stock such that the multiplicity of infection was 0.1. […] The homogenate was centrifuged at 10,000×G for 30 minutes, and the resultant supernatant was stored at −80° C. before being assayed for COX activity.
Assay for COX-1 and COX-2 Activity
(§2) COX activity was assayed as PGE2 formed/μg protein/time using an ELISA to detect the prostaglandin released. CHAPS-solubilized insect cell membranes containing the appropriate COX enzyme were incubated in a potassium phosphate buffer (50 mM, pH 8.0) containing epinephrine, phenol, and heme with the addition of arachidonic acid (10 μM). […] The PGE2 formed was measured by standard ELISA technology (Cayman Chemical).

COX-1 = COX-1 (UniProt P23219); experiment: Assay for COX-1 activity (PGE2 ELISA); settings: read-out: COX-1 IC50; 10–20 minutes pre-incubation, reaction stopped after ten minutes, pH 8.0
Method: as §1
Assay for COX-1 and COX-2 Activity
as §2

| Structure (SMILES) | IC50 (COX-2 [1]) [µM] | IC50 (COX-2 [2]) [µM] | IC50 (COX-1) [µM] | melting point [°C] |
| --- | --- | --- | --- | --- |
| CSc1ccc2c(c1)C=C(C(=O)O)C(C(F)(F)F)O2 (stereo not shown) [Example 2, 6-(Methylthio)-2-(trifluoromethyl)-2H-1-benzopyran-3-carboxylic acid] | < 0.1 | < 0.1 | 5 |  |
| COc1ccc(Oc2ccc3c(c2)C=C(C(=O)O)C(C(F)(F)F)O3)cc1Cl (stereo not shown) [Example 9, 6-(3-Chloro-4-methoxyphenoxy)-2-(trifluoromethyl)-2H-1-benzopyran-3-carboxylic acid] | < 0.1 | < 0.1 | < 0.1 | 205 to 207 |
| O=C(O)C1=Cc2cc(Cl)cc(Br)c2OC1C(F)(F)F (stereo not shown) [Example 15, 8-Bromo-6-chloro-2-trifluoromethyl-2H-1-benzopyran-3-carboxylic acid] | > 0.1 | 134 | 44 | 227.8 to 228.9 |
| CC(C)(C)c1cc2c(c(C(C)(C)C)c1)OC(C(F)(F)F)C(C(=O)O)=C2 (stereo not shown) [Example 23, 6,8-bis(1,1-Dimethylethyl)-2-trifluoromethyl-2H-1-benzopyran-3-carboxylic acid] | 7 | 24 | > 100 | 171.6 to 175 |
| O=C(O)C1=Cc2cc(Cl)c(-c3ccccc3)cc2OC1C(F)(F)F (stereo not shown) [Example 30, 6-Chloro-7-phenyl-2-trifluoromethyl-2H-1-benzopyran-3-carboxylic acid] | < 0.1 | 16 | 3.8 | 185.3 to 187.8 |
| O=C(O)C1=Cc2cc(Br)cc(Br)c2OC1C(F)(F)F (stereo not shown) [Example 33, 6,8-Dibromo-2-trifluoromethyl-2H-1-benzopyran-3-carboxylic acid] | < 0.1 | 8.2 | 28 | 225 to 226 |
| CCOC(=O)C1=Cc2cc(N)ccc2OC1C(F)(F)F (stereo not shown) [Example 35, Ethyl 6-amino-2-trifluoromethyl-2H-1-benzopyran-3-carboxylate] | 2.2 | 1.7 | 11 | 111 to 115 |
| O=C(O)C1=Cc2cc(Br)cc(Cl)c2OC1C(F)(F)F (stereo not shown) [Example 42, 6-Bromo-8-chloro-2-trifluoromethyl-2H-1-benzopyran-3-carboxylic acid] | < 0.1 | < 0.1 | 11 | 220.7 to 221.7 |
| Cc1cc(Br)c2c(c1)C=C(C(=O)O)C(C(F)(F)F)O2 (stereo not shown) [Example 44, 8-Bromo-6-methyl-2-trifluoromethyl-2H-1-benzopyran-3-carboxylic acid] | 0.3 | 21 | > 100 | 237 to 238 |
| O=C(O)C1=Cc2c(F)ccc(Br)c2OC1C(F)(F)F (stereo not shown) [Example 45, 8-Bromo-5-fluoro-2-trifluoromethyl-2H-1-benzopyran-3-carboxylic acid] | 0.2 | 46 | > 100 | 221.7 to 223.3 |
| COc1cc(Br)cc2c1OC(C(F)(F)F)C(C(=O)O)=C2 (stereo not shown) [Example 47, 6-Bromo-8-methoxy-2-trifluoromethyl-2H-1-benzopyran-3-carboxylic acid] | 1.9 | 1.7 | > 100 |  |
| O=C(O)C1=Cc2cc(S(=O)(=O)NCc3ccccc3)ccc2OC1C(F)(F)F (stereo not shown) [Example 49, 6-[[(Phenylmethyl)amino]sulfonyl]-2-trifluoromethyl-2H-1-benzopyran-3-carboxylic acid] | 24 | 31 | > 100 | 223.3 to 224.4 |
| O=C(O)C1=Cc2cc(S(=O)(=O)N3CCOCC3)ccc2OC1C(F)(F)F (stereo not shown) [Example 53, 6-[(4-Morpholino)sulfonyl]-2-trifluoromethyl-2H-1-benzopyran-3-carboxylic acid] | 8 | 6 | > 100 | 215.2 to 219.3 |
| CC(C)CNS(=O)(=O)c1ccc2c(c1)C=C(C(=O)O)C(C(F)(F)F)O2 (stereo not shown) [Example 55, 6-[(2-Methylpropyl)aminosulfonyl]-2-trifluoromethyl-2H-1-benzopyran-3-carboxylic acid] | 46 | 53 | > 100 | 190.6 to 192.4 |
| CS(=O)(=O)c1ccc2c(c1)C=C(C(=O)O)C(C(F)(F)F)O2 (stereo not shown) [Example 56, 6-Methylsulfonyl-2-trifluoromethyl-2H-1-benzopyran-3-carboxylic acid] | 12 | 29 | > 100 | 208.3 to 212.4 |
| O=C(O)C1=Cc2cc(S(=O)(=O)NCc3ccccc3)cc(Cl)c2OC1C(F)(F)F (stereo not shown) [Example 57, 8-Chloro-6-[[(phonylmethyl)amino]sulfonyl]-2-trifluoromethyl-2H-1-benzopyran-3-carboxylic acid] | 21 | 21 | > 100 |  |
| O=C(O)C1=Cc2cc(Cl)ccc2O[C@@H]1C(F)(F)F [Example 66, (S)-6-Chloro-2-trifluoromethyl-2H-1-benzopyran-3-carboxylic acid] | 82 | < 0.1 | 16.9 |  |
| O=C(O)C1=Cc2cc(C(F)(F)C(F)(F)F)ccc2OC1C(F)(F)F (stereo not shown) [Example 88, 6-(Pentafluoroethyl)-2-(trifluoromethyl)-2H-1-benzopyran-3-carboxylic acid] | < 0.1 | < 0.1 | 6.4 | 162.3 to 164.7 |
| O=C(O)C1=Cc2cc(SC(F)(F)F)ccc2OC1C(F)(F)F (stereo not shown) [Example 91, 2-(Trifluoromethyl)-6-[(trifluoromethyl)thio]-2H-1-benzopyran-3-carboxylic acid] | < 0.1 | 0.2 | 36 |  |
| O=C(O)C1=Cc2cc(C(=O)c3ccc(Cl)cc3)ccc2OC1C(F)(F)F (stereo not shown) [Example 97, 6-(4-Chlorobenzoyl)-2-(trifluoromethyl)-2H-1-benzopyran-3-carboxylic acid] | 0.2 | 0.1 | 25 | 268.3 to 269.4 |
| O=C(O)C1=Cc2cc(C(=O)c3ccc(O)cc3)ccc2OC1C(F)(F)F (stereo not shown) [Example 98, 6-(4-Hydroxybenzoyl)-2-(trifluoromethyl)-2H-1-benzopyran-3-carboxylic acid] | 2 | 1.5 | 19 | 234 to 239.5 |
| O=C(O)C1=Cc2cc(Oc3ccccc3)ccc2OC1C(F)(F)F (stereo not shown) [Example 99, 6-Phenoxy-2-(trifluoromethyl)-2H-1-benzopyran-3-carboxylic acid] | 0.2 | < 0.1 | 23 | 184.9 to 186.4 |
| O=C(O)C1=Cc2cc(Oc3ccc(C(F)(F)F)cc3)ccc2OC1C(F)(F)F (stereo not shown) [Example 101, 2-(Trifluoromethyl)-6-[4-(trifluoromethyl)phenoxy)-2H-1-benzopyran-3-carboxylic acid] | < 0.1 | < 0.1 | 16 | 153.5 to 154.4 |
| O=C(O)C1=Cc2cc(Oc3ccc(Cl)cc3)ccc2OC1C(F)(F)F (stereo not shown) [Example 104, 6-(4-Chlorophenoxy)-2-(trifluoromethyl)-2H-1-benzopyran-3-carboxylic acid] | < 0.1 | < 0.1 | 8.2 | 140.5 to 142.5 |
| O=C(O)C1=Cc2c(ccc3oc4ccccc4c23)OC1C(F)(F)F (stereo not shown) [Example 106, 3-(Trifluoromethyl)-3H-benzofuro[3,2-f][1]benzopyran-2-carboxylic acid] | 0.2 | < 0.1 | 5.7 | 253.5 to 256 |
| C=Cc1cc(Cl)cc2c1OC(C(F)(F)F)C(C(=O)O)=C2 (stereo not shown) [Example 114, 6-Chloro-8-ethenyl-2-(trifluoramethyl)-2H-1-benzopyran-3-carboxylic acid] | < 0.1 | < 0.1 | < 0.1 | 183.2 to 185.8 |
| O=C(O)C1=Cc2cc(Cl)cc(-c3cccs3)c2OC1C(F)(F)F (stereo not shown) [Example 116, 6-Chloro-8-(2-thienyl)-2-(trifluoromethyl)-2H-1-benzopyran-3-carboxylic acid] | < 0.1 | < 0.1 | < 0.1 | 257.5 to 258.8 |
| Cc1cc2c(cc1Cl)C=C(C(=O)O)C(C(F)(F)F)S2 (stereo not shown) [Example 152, 6-Chloro-7-methyl-2-(trifluoromethyl)-2H-1-benzothiopyran-3-carboxylic acid] | < 0.1 | < 0.1 | 10 |  |
| O=C(O)C1=Cc2cc(Cl)c(Oc3ccccn3)cc2OC1C(F)(F)F (stereo not shown) [Example 202, 6-Chloro-7-[2-pyridinyloxy]-2-(trifluoromethyl)-2H-1-benzopyran-3-carboxylic acid] |  | < 0.1 | 42.8 | 234.2 to 235.4 |
